Experimental data reported in the NIST ThermoML archive (doi:10.1021/acs.jced.8b00554).
Numbers after ± are expanded uncertainties.

Test: xn = mol fraction of the nth substance listed
Details: Liquid, Vibrating tube method

CCCCCCCC [octane] + CCCO
Details | mass density [kg/m3]
353.15 K, 10010 kPa, x2 = 0.3158 | 674.1 ± 4.3
353.15 K, 10010 kPa, x2 = 0.4411 | 682.1 ± 4.4
353.15 K, 10010 kPa, x2 = 0.7301 | 710.33 ± 4.5
353.15 K, 11000 kPa, x2 = 0.1631 | 668.3 ± 4.3
353.15 K, 11000 kPa, x2 = 0.7301 | 711.46 ± 4.6
353.15 K, 11000 kPa, x2 = 0.8823 | 735.72 ± 4.7
353.15 K, 11010 kPa, x2 = 0.4411 | 683.25 ± 4.4
353.15 K, 11020 kPa, x2 = 0.2111 | 670.17 ± 4.3
353.15 K, 11020 kPa, x2 = 0.3158 | 675.25 ± 4.3
353.15 K, 12000 kPa, x2 = 0.2111 | 671.35 ± 4.3
353.15 K, 12000 kPa, x2 = 0.3158 | 676.4 ± 4.3
353.15 K, 12000 kPa, x2 = 0.4411 | 684.41 ± 4.4
353.15 K, 12000 kPa, x2 = 0.7301 | 712.61 ± 4.6
353.15 K, 12010 kPa, x2 = 0.1631 | 669.46 ± 4.3
353.15 K, 12020 kPa, x2 = 0.8823 | 736.81 ± 4.7
353.15 K, 13000 kPa, x2 = 0.3158 | 677.55 ± 4.3
353.15 K, 13010 kPa, x2 = 0.1631 | 670.56 ± 4.3
353.15 K, 13010 kPa, x2 = 0.8823 | 737.84 ± 4.7
353.15 K, 13020 kPa, x2 = 0.2111 | 672.46 ± 4.3
353.15 K, 13020 kPa, x2 = 0.4411 | 685.53 ± 4.4
353.15 K, 13020 kPa, x2 = 0.7301 | 713.71 ± 4.6
353.15 K, 14000 kPa, x2 = 0.1631 | 671.69 ± 4.3
353.15 K, 14000 kPa, x2 = 0.3158 | 678.66 ± 4.3
353.15 K, 14000 kPa, x2 = 0.4411 | 686.68 ± 4.4
353.15 K, 14000 kPa, x2 = 0.7301 | 714.83 ± 4.6
353.15 K, 14010 kPa, x2 = 0.2111 | 673.57 ± 4.3
353.15 K, 14010 kPa, x2 = 0.8823 | 738.9 ± 4.7
353.15 K, 15000 kPa, x2 = 0.4411 | 687.73 ± 4.4
353.15 K, 15000 kPa, x2 = 0.8823 | 739.94 ± 4.7
353.15 K, 15010 kPa, x2 = 0.1631 | 672.77 ± 4.3
353.15 K, 15020 kPa, x2 = 0.2111 | 674.7 ± 4.3
353.15 K, 15020 kPa, x2 = 0.3158 | 679.74 ± 4.4
353.15 K, 15020 kPa, x2 = 0.7301 | 715.89 ± 4.6
353.15 K, 16010 kPa, x2 = 0.1631 | 673.82 ± 4.3
353.15 K, 16010 kPa, x2 = 0.2111 | 675.76 ± 4.3
353.15 K, 16010 kPa, x2 = 0.3158 | 680.86 ± 4.4
353.15 K, 16010 kPa, x2 = 0.7301 | 716.98 ± 4.6
353.15 K, 16010 kPa, x2 = 0.8823 | 740.94 ± 4.8
353.15 K, 16020 kPa, x2 = 0.4411 | 688.85 ± 4.4
353.15 K, 17000 kPa, x2 = 0.1631 | 674.88 ± 4.3
353.15 K, 17000 kPa, x2 = 0.3158 | 681.92 ± 4.4
353.15 K, 17000 kPa, x2 = 0.4411 | 689.88 ± 4.4
353.15 K, 17010 kPa, x2 = 0.7301 | 718.02 ± 4.6
353.15 K, 17020 kPa, x2 = 0.2111 | 676.83 ± 4.3
353.15 K, 17020 kPa, x2 = 0.8823 | 741.94 ± 4.8
353.15 K, 18010 kPa, x2 = 0.1631 | 675.92 ± 4.3
353.15 K, 18010 kPa, x2 = 0.2111 | 677.86 ± 4.3
353.15 K, 18010 kPa, x2 = 0.4411 | 690.94 ± 4.4
353.15 K, 18010 kPa, x2 = 0.7301 | 719.02 ± 4.6
353.15 K, 18010 kPa, x2 = 0.8823 | 742.92 ± 4.8
353.15 K, 18020 kPa, x2 = 0.3158 | 682.96 ± 4.4
353.15 K, 19000 kPa, x2 = 0.1631 | 676.89 ± 4.3
353.15 K, 19010 kPa, x2 = 0.2111 | 678.87 ± 4.4
353.15 K, 19010 kPa, x2 = 0.3158 | 683.98 ± 4.4
353.15 K, 19010 kPa, x2 = 0.4411 | 691.96 ± 4.4
353.15 K, 19010 kPa, x2 = 0.7301 | 720.02 ± 4.6
353.15 K, 19010 kPa, x2 = 0.8823 | 743.88 ± 4.8
353.15 K, 20000 kPa, x2 = 0.7301 | 721.02 ± 4.6
353.15 K, 20000 kPa, x2 = 0.8823 | 744.83 ± 4.8
353.15 K, 20010 kPa, x2 = 0.1631 | 677.88 ± 4.3
353.15 K, 20010 kPa, x2 = 0.3158 | 684.96 ± 4.4
353.15 K, 20010 kPa, x2 = 0.4411 | 692.97 ± 4.5
353.15 K, 20020 kPa, x2 = 0.2111 | 679.82 ± 4.4
363.15 K, 100 kPa, x2 = 0.1631 | 643.75 ± 4.1
363.15 K, 100 kPa, x2 = 0.2111 | 645.23 ± 4.1
363.15 K, 100 kPa, x2 = 0.3158 | 649.43 ± 4.2
363.15 K, 100 kPa, x2 = 0.4411 | 656.74 ± 4.2
363.15 K, 100 kPa, x2 = 0.7301 | 685.03 ± 4.4
363.15 K, 100 kPa, x2 = 0.8823 | 711.1 ± 4.5
363.15 K, 1000 kPa, x2 = 0.2111 | 646.4 ± 4.1
363.15 K, 1010 kPa, x2 = 0.1631 | 644.92 ± 4.1
363.15 K, 1010 kPa, x2 = 0.3158 | 650.63 ± 4.2
363.15 K, 1020 kPa, x2 = 0.4411 | 658.07 ± 4.2
363.15 K, 1020 kPa, x2 = 0.7301 | 686.21 ± 4.4
363.15 K, 1020 kPa, x2 = 0.8823 | 712.01 ± 4.6
363.15 K, 2000 kPa, x2 = 0.3158 | 652.01 ± 4.2
363.15 K, 2000 kPa, x2 = 0.4411 | 659.42 ± 4.2
363.15 K, 2000 kPa, x2 = 0.7301 | 687.5 ± 4.4
363.15 K, 2000 kPa, x2 = 0.8823 | 713.23 ± 4.6
363.15 K, 2010 kPa, x2 = 0.1631 | 646.32 ± 4.1
363.15 K, 2010 kPa, x2 = 0.2111 | 647.77 ± 4.2
363.15 K, 3000 kPa, x2 = 0.1631 | 647.65 ± 4.2
363.15 K, 3010 kPa, x2 = 0.3158 | 653.38 ± 4.2
363.15 K, 3010 kPa, x2 = 0.4411 | 660.78 ± 4.2
363.15 K, 3010 kPa, x2 = 0.8823 | 714.49 ± 4.6
363.15 K, 3020 kPa, x2 = 0.2111 | 649.11 ± 4.2
363.15 K, 3020 kPa, x2 = 0.7301 | 688.81 ± 4.4
363.15 K, 4010 kPa, x2 = 0.2111 | 650.5 ± 4.2
363.15 K, 4010 kPa, x2 = 0.3158 | 654.7 ± 4.2
363.15 K, 4010 kPa, x2 = 0.4411 | 662.14 ± 4.2
363.15 K, 4010 kPa, x2 = 0.8823 | 715.75 ± 4.6
363.15 K, 4020 kPa, x2 = 0.1631 | 649 ± 4.2
363.15 K, 4020 kPa, x2 = 0.7301 | 690.17 ± 4.4
363.15 K, 5000 kPa, x2 = 0.2111 | 651.8 ± 4.2
